According to patent US9376470B2, “Polypeptide having angiogenesis-inducing activity and antibacterial activity, and use thereof for medical purposes” (FunPep Inc., priority 2008, dated 2016):
Peptide text beside a SMILES is read from it.

How the values were obtained:
Assay in all cases: Antibacterial activity, ATP assay (BacTiter-Glo)
Format in all cases: cell-based
[1] = tested on: Enterobacteria (1): Enterobacter cloacae JCM 1232; conditions: ATP assay concentration: peptides 10, TOB 4.0, CPFX 1.0, OX 4.0, MEPM 8.0 μg/ml
Procedure: That is, using BacTiter-Glo Microbial Cell Viability Assay kit available from PROMEGA, the antibacterial activity of the peptides was evaluated from the viability of bacteria. […] With respect to the strains, Staphylococcus aureus ATCC29213 (S. aureus ATCC29213) as Gram-positive bacteria, or, alternatively, Pseudomonas aeruginosa (P. aeruginosa ATCC27853) as Gram-negative bacteria, was used. The bacteria were cultured in media for 3 to 4 hours, and thereafter absorbances at A600 were measured. Bacterial suspensions were diluted with Mueller-Hinton broth (MHB) according to McFarland #0.5. Each strain was added so as to attain about 0.5−1×10^5 CFU/mL (final concentration) in terms of Escherichia coli. […] A solution to which the peptides were not added was considered as a negative control, and a solution to which tobramycin (TOB) was added was considered as a positive control. […] Relative values were calculated by comparison with the negative control, and these values were regarded as the viability. […] ATP (%) of the antibacterial activity was measured in the same manner as mentioned above, and the “minimum inhibitory concentration (MIC)” was measured as follows. MIC is the lowest concentration of an agent that may inhibit the growth of a bacterium. MIC is used as a parameter for the efficacy of an antibacterial agent, for the strength of bacterial sensitivity, or the like. The bacteria can grow (proliferate) when the concentration is not higher than MIC, and cannot grow when the concentration is higher than MIC. […] (CLSI), but, in this Example, its measurement was carried out by a broth microdilution method in accordance with “M100-S17/M7-A7” (Performance Standards for Antimicrobial Susceptibility Testing; Seventeenth Informational Supplement, Vol. 27 No. 1) published by CLSI on January, 2007. That is, sensitivity test of agents was carried out using a microtiter plate or test tubes. With respect to each strain, Escherichia coli: ATCC 25922 (Escherichia coli ATCC 25922), Pseudomonas aeruginosa: ATCC 27853 (Pseudomonas aeruginosa ATCC 27853), Staphylococcus aureus: ATCC29213 (Staphylococcus aureus ATCC29213), Klebsiella pneumoniae: JCM 1662 (Klebsiella pneumoniae JCM 1662), enterobacteria (1): JCM 1232 (Enterobacter cloacae JCM 1232), enterobacteria (2): JCM 1235 (Enterobacter aerogenes JCM 1235), and Staphylococcus epidermidis: JCM 2414 (Staphylococcus epidermidis JCM 2414), were used. […] As the concentrations of the agents in ATP assay, the concentrations as described in the Tables were used.

[2] = tested on: Escherichia coli ATCC 25922; conditions: ATP assay concentration: peptides 10, TOB 1.0, CPFX 0.015, OX 0.5, MEPM 0.1 μg/ml
Procedure: (§1) That is, using BacTiter-Glo Microbial Cell Viability Assay kit available from PROMEGA, the antibacterial activity of the peptides was evaluated from the viability of bacteria. […] With respect to the strains, Staphylococcus aureus ATCC29213 (S. aureus ATCC29213) as Gram-positive bacteria, or, alternatively, Pseudomonas aeruginosa (P. aeruginosa ATCC27853) as Gram-negative bacteria, was used. The bacteria were cultured in media for 3 to 4 hours, and thereafter absorbances at A600 were measured. Bacterial suspensions were diluted with Mueller-Hinton broth (MHB) according to McFarland #0.5. Each strain was added so as to attain about 0.5−1×10^5 CFU/mL (final concentration) in terms of Escherichia coli. […] A solution to which the peptides were not added was considered as a negative control, and a solution to which tobramycin (TOB) was added was considered as a positive control. […] Relative values were calculated by comparison with the negative control, and these values were regarded as the viability. […] ATP (%) of the antibacterial activity was measured in the same manner as mentioned above, and the “minimum inhibitory concentration (MIC)” was measured as follows. MIC is the lowest concentration of an agent that may inhibit the growth of a bacterium. MIC is used as a parameter for the efficacy of an antibacterial agent, for the strength of bacterial sensitivity, or the like. The bacteria can grow (proliferate) when the concentration is not higher than MIC, and cannot grow when the concentration is higher than MIC. Its measurement is carried out according to a method defined as a standard method by Japanese Society of Chemotherapy or CLINICAL AND LABORATORY […] (CLSI), but, in this Example, its measurement was carried out by a broth microdilution method in accordance with “M100-S17/M7-A7” (Performance Standards for Antimicrobial Susceptibility Testing; Seventeenth Informational Supplement, Vol. 27 No. 1) published by CLSI on January, 2007. That is, sensitivity test of agents was carried out using a microtiter plate or test tubes. With respect to each strain, Escherichia coli: ATCC 25922 (Escherichia coli ATCC 25922), Pseudomonas aeruginosa: ATCC 27853 (Pseudomonas aeruginosa ATCC 27853), Staphylococcus aureus: ATCC29213 (Staphylococcus aureus ATCC29213), Klebsiella pneumoniae: JCM 1662 (Klebsiella pneumoniae JCM 1662), enterobacteria (1): JCM 1232 (Enterobacter cloacae JCM 1232), enterobacteria (2): JCM 1235 (Enterobacter aerogenes JCM 1235), and Staphylococcus epidermidis: JCM 2414 (Staphylococcus epidermidis JCM 2414), were used. […] As the concentrations of the agents in ATP assay, the concentrations as described in the Tables were used.

[3] = tested on: Staphylococcus epidermidis JCM 2414; conditions: ATP assay concentration: peptides 10, TOB 1.0, CPFX 0.5, OX 0.5, MEPM 0.125 μg/ml
Procedure: as §1

[4] = tested on: Klebsiella pneumoniae JCM 1662; conditions: ATP assay concentration: peptides 10, TOB 4.0, CPFX 1.0, OX 0.5, MEPM 8.0 μg/ml
Procedure: as §1

[5] = tested on: Enterobacteria (2): Enterobacter aerogenes JCM 1235; conditions: ATP assay concentration: peptides 10, TOB 4.0, CPFX 1.0, OX 4.0, MEPM 8.0 μg/ml
Procedure: as §1

Compound | ATP (%) mean, Enterobacteria (1) [1] [%] | ATP (%) mean, Escherichia coli [2] [%] | ATP (%) mean, Staphylococcus epidermidis [3] [%] | ATP (%) mean, Klebsiella pneumoniae [4] [%] | ATP (%) mean, Enterobacteria (2) [5] [%]
C[C@@H](O)[C@H]1C(=O)N2C(C(=O)O)=C(S[C@@H]3CN[C@H](C(=O)N(C)C)C3)[C@H](C)[C@H]12 [MEPM, meropenem, reference compound] | 5.6 | 15.7 | 28.2 | 11.9 | 2.3
Cc1onc(-c2ccccc2)c1C(=O)N[C@@H]1C(=O)N2[C@@H]1SC(C)(C)[C@@H]2C(=O)O [OX, oxacillin, reference compound] | 97.7 | 114.4 | 101.4 | 142.2 | 86.9
CC[C@H](C)[C@H](NC(=O)[C@H](CC(C)C)NC(=O)[C@H](CCCCN)NC(=O)[C@H](CC(C)C)NC(=O)[C@@H](N)CCSC)C(=O)N[C@@H](Cc1ccccc1)C(=O)N[C@@H](CC(C)C)C(=O)N[C@@H](Cc1c[nH]cn1)C(=O)N[C@@H](CCCNC(=N)N)C(=O)N[C@@H](CC(C)C)C(=O)N[C@@H](CCCCN)C(=O)N[C@@H](CCCNC(=N)N)C(=O)N[C@@H](CCSC)C(=O)N[C@@H](CCCNC(=N)N)C(=O)N[C@@H](CCCCN)C(=O)N[C@@H](CCCNC(=N)N)C(=O)N[C@@H](CC(C)C)C(=O)N[C@@H](CCCCN)C(=O)N[C@@H](CCCNC(=N)N)C(=O)N[C@@H](CCCCN)C(=O)O [SR-1] (H-MLKLIFLHRLKRMRKRLKRK-OH; N-terminus assumed) | 4.9 | 18.4 | 5.2 | 22.1 | 39.4
CC(C)C[C@H](NC(=O)[C@H](CCCCN)NC(=O)[C@H](CCCNC(=N)N)NC(=O)[C@H](CCCCN)NC(=O)[C@H](CC(C)C)NC(=O)[C@H](CCCNC(=N)N)NC(=O)[C@H](CCCCN)NC(=O)[C@H](CCCNC(=N)N)NC(=O)[C@H](CC(C)C)NC(=O)[C@H](CCCNC(=N)N)NC(=O)[C@H](CCCNC(=N)N)NC(=O)[C@H](CCCCN)NC(=O)[C@H](CC(C)C)NC(=O)[C@H](CCCNC(=N)N)NC(=O)[C@H](Cc1c[nH]cn1)NC(=O)[C@H](CC(C)C)NC(=O)[C@H](Cc1ccccc1)NC(=O)[C@H](CCCNC(=N)N)NC(=O)[C@H](CC(C)C)NC(=O)[C@@H](N)CCC(=O)O)C(=O)N[C@@H](CCCNC(=N)N)C(N)=O [SR-2] (H-ELRFLHRLKRRLRKRLKRKLR-NH2; N-terminus assumed) | 3.0 | 6.2 | 2.6 | 9.1 | 15.3
CSCC[C@H](NC(=O)[C@H](CCCNC(=N)N)NC(=O)[C@H](CCCCN)NC(=O)[C@H](CC(C)C)NC(=O)[C@H](CCCNC(=N)N)NC(=O)[C@H](Cc1c[nH]cn1)NC(=O)[C@H](CC(C)C)NC(=O)[C@H](Cc1ccccc1)NC(=O)[C@H](CCCNC(=N)N)NC(=O)[C@H](CC(C)C)NC(=O)[C@@H](N)CCC(=O)O)C(=O)N[C@@H](CCCNC(=N)N)C(=O)N[C@@H](CCCCN)C(=O)N[C@@H](CCCNC(=N)N)C(=O)N[C@@H](CC(C)C)C(=O)N[C@@H](CCCCN)C(=O)N[C@@H](CCCNC(=N)N)C(=O)N[C@@H](CCCCN)C(=O)N[C@@H](CC(C)C)C(=O)N[C@@H](CCCNC(=N)N)C(N)=O [SR-3] (H-ELRFLHRLKRMRKRLKRKLR-NH2; N-terminus assumed) | 4.3 | 16.5 | 4.1 | 20.3 | 23.5
CC[C@H](C)[C@H](NC(=O)[C@H](CC(C)C)NC(=O)[C@@H](N)CCCCN)C(=O)N[C@@H](Cc1ccccc1)C(=O)N[C@@H](CC(C)C)C(=O)N[C@@H](Cc1c[nH]cn1)C(=O)N[C@@H](CCCNC(=N)N)C(=O)N[C@@H](CC(C)C)C(=O)N[C@@H](CCCCN)C(=O)N[C@@H](CCCNC(=N)N)C(=O)N[C@@H](CCSC)C(=O)N[C@@H](CCCNC(=N)N)C(=O)N[C@@H](CCCCN)C(=O)N[C@@H](CCCNC(=N)N)C(=O)N[C@@H](CC(C)C)C(=O)N[C@@H](CCCCN)C(=O)N[C@@H](CCCNC(=N)N)C(=O)N[C@@H](CCCCN)C(=O)N[C@@H](CC(C)C)C(=O)N[C@@H](CCCNC(=N)N)C(N)=O [SR-4] (H-KLIFLHRLKRMRKRLKRKLR-NH2; N-terminus assumed) | 4.9 | 13.0 | 5.5 | 15.0 | 20.9
CSCC[C@H](NC(=O)[C@H](CCCNC(=N)N)NC(=O)[C@@H](N)CCCCN)C(=O)N[C@@H](CCCNC(=N)N)C(=O)N[C@@H](CCCCN)C(=O)N[C@@H](CCCNC(=N)N)C(=O)N[C@@H](CC(C)C)C(=O)N[C@@H](CCCCN)C(=O)N[C@@H](CCCNC(=N)N)C(=O)N[C@@H](CCCCN)C(=O)N[C@@H](CC(C)C)C(=O)N[C@@H](CCCNC(=N)N)C(=O)N[C@@H](CC(C)C)C(=O)N[C@@H](Cc1c[nH]c2ccccc12)C(=O)N[C@@H](Cc1c[nH]cn1)C(=O)N[C@@H](CCCNC(=N)N)C(=O)N[C@@H](CCCCN)C(=O)N[C@@H](CCCNC(=N)N)C(=O)N[C@@H](Cc1ccc(O)cc1)C(=O)N[C@@H](CCCCN)C(=O)O [SR-5] (H-KRMRKRLKRKLRLWHRKRYK-OH; N-terminus assumed) | 3.4 | 27.0 | 3.6 | 30.0 | 41.5
NC[C@H]1O[C@H](O[C@H]2[C@H](O)[C@@H](O[C@H]3O[C@H](CO)[C@@H](O)[C@H](N)[C@H]3O)[C@H](N)C[C@@H]2N)[C@H](N)C[C@@H]1O [TOB, tobramycin, reference compound] | 3.0 | 3.8 | 4.2 | 3.8 | 0.5
